Drawing on patent publication US9657022B2, “7-OXO-1,6-diazabicyclo[3.2.1]octane derivatives and their use as antibacterial agents” (WOCKHARDT LIMITED, priority 2014, dated 2017), this text covers MIC and IC50 for one compound.

Converted amounts (≈) assume the structure as drawn. “And” between values parts separate entries of the source, which are not always exact repeats. Equal entries are not always repeated. Where two headings read alike, the source gives them in different places.

In experiment [1] the test system is E. coli NCTC 13353 (CTX-M15, OXA-1). The experiment in a line: Antibacterial activity (MIC), agar dilution per CLSI. The following applies: Escherichia coli, NCTC13353; E. coli NCTC 13353 (CTX-M15, OXA-1); read-out: MIC. Type of experiment: cell-based. The procedure:
(§1) The biological activity of representative compounds according to the invention against various bacterial strains was investigated. In a typical study, overnight grown bacterial cultures were diluted appropriately and inoculated on the agar media containing doubling dilutions of the test compounds. Observations for growth or no growth was performed after 16-20 hours of incubation at 35±2° C. in the ambient air. The overall procedure was performed as per Clinical and Laboratory Standards Institute (CLSI) recommendations, (Clinical and Laboratory Standards Institute (CLSI), Performance Standards for Antimicrobial Susceptibility Testing, 20th Informational Supplement, M07-A9, Volume 32, No. 2, 2012). Molten Mueller Hinton Agar (BD, USA) containing serial dilutions of each antibacterial agent were poured on to the plates and allowed to solidify. Appropriate suspensions from the freshly grown cultures were prepared in normal saline so that about 10^4 CFU/spot of the organism was delivered on to the drug containing agar plates using automated multipoint inoculator (Mast, UK). The plates were incubated in Biochemical oxygen demand (BOD) incubator at 37° C. for 18 hours and then examined for growth.
(§2) The strains selected for study included E. coli NCTC 13353 producing CTX-M15 and OXA-1 beta-lactamase enzymes; K. pneumoniae H521 producing KPC, SHV, TEM beta-lactamase enzymes; and K. pneumoniae S48 producing NDM, SHV, TEM beta-lactamase enzymes. The activities are expressed as Minimum Inhibitory Concentrations (MICs) (mcg/ml).
(§3) The activities are expressed as Minimum Inhibitory Concentrations (MICs) (mcg/ml).

Experiment [2] has as its system K. pneumoniae H521 (KPC, SHV, TEM). The experiment is described as above. Type of experiment: cell-based. The following applies: Klebsiella pneumoniae; K. pneumoniae H521 (KPC, SHV, TEM); read-out: MIC. The procedure: as §1, §2, §3
Experiment [3] concerns the target T1, Class A beta-lactamase SHV 18 (K. pneumoniae ATCC 700603) (Klebsiella pneumoniae, UniProt P0AD64, E235K/G234A/I4F/R39S).
T1 sequence (P0AD64 1-286 I4F/R39S/G234A/E235K): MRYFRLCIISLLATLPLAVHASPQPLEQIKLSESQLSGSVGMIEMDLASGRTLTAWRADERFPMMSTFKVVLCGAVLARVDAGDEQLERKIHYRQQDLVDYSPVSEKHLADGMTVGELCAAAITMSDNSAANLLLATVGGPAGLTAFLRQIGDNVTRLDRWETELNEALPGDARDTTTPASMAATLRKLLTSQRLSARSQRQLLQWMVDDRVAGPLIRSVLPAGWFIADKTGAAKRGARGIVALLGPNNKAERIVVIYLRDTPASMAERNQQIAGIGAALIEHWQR
Nature of the experiment: Beta-lactamase enzyme inhibition (Nitrocefin, crude enzyme). Type of experiment: biochemical. The following applies: Class A, K. pneumoniae ATCC 700603 (SHV 18); read-out: Beta-lactamase enzyme inhibition IC50. Here is the method:
(§4) Absorbance was measured at 485 nm by UV-spectrophotometer. The IC50 was calculated by plotting absorbance against concentration through Sigmoidal dose response curve using Graph Pad software.
(§5) The enzyme inhibition was expressed as IC50.

The test system of experiment [4] is Class C beta-lactamase CMY/DHA (E. coli M50). The description is as above. Type of experiment: biochemical. Here is the method:
as §4, §5

Consider `O=C(C[C@@H]1CCCN1)NNC(=O)[C@@H]1CC[C@@H]2CN1C(=O)N2OS(=O)(=O)O` [Example 1, (2S,5R)-Sulfuric acid mono-{2-[N′-(2-(S)-pyrrolidin-2-yl-acetyl)-hydrazinocarbonyl]-7-oxo-1,6-diaza-bicyclo[3.2.1]oct-6-yl}ester], for which the minimum inhibitory concentration (MIC) in experiment [1] and in experiment [2] was 0.5 µg/mL (≈ 1.28 µM) each time. In addition, the concentration for half-maximal inhibition (IC50) in experiment [3] was 80 nM and 81 nM; in experiment [4] it was 60 nM; in experiment [4] (listed as Compound of Example 1), 65 nM.

By MIC is commonly meant the lowest concentration that inhibits growth of the organism. As a reminder, the IC50 is the concentration that gives 50% inhibition.
